Laboratory results reported in ChEMBL document CHEMBL3507680, “University of Dundee, Gates Library screen for HepG2 cell viability”.

test: Human HepG2 cell viability assay in 384 well format; assay type: toxicity, cell-based; set-up: dose 125 nL, time 70.5 hour; concentration not given beside the values; details: HepG2 cells, read-out: Inhibition

First: NC(=O)N1CCCC(C(=O)NCc2noc(Cc3ccccc3)n2)C1 (stereo not drawn)
Second: NC(=O)C1CCCN(Cc2ccc(C(=O)Nc3cnns3)cc2)C1 (stereo not drawn)
The cytotoxicity at 70.5 h of the first is lower: -12.7% for the first, 5.24% for the second.

Going from CCc1nnc2n1CCN(C(=O)c1nc(-c3ccco3)sc1C)C2 to Cn1nc2c(cc1=O)CN(Cc1nc(-c3ccco3)no1)CC2, the cytotoxicity at 70.5 h falls from -6% to -7.45%.

Compared with CCN(CC)C(=O)CSc1nnc(CCNC(=O)OC(C)(C)C)o1, CC(=O)Nc1ccc(CNC(=O)CNCc2nnc(C)o2)cc1 is higher in cytotoxicity at 70.5 h: -11.3% for the first, 2.3% for the second.

First: CCOCc1ncn2c1CN(C(=O)Nc1cccc(C)c1)CC2
Second: COCc1ncn2c1CN(C(=O)c1ccc[nH]1)CC2
The cytotoxicity at 70.5 h of the first is lower: -6.82% for the first, -4.65% for the second.

First: O=C(c1ccc(C2CCCN2C(=O)c2cscn2)s1)N1CCSCC1 (stereo not drawn)
Second: O=C(c1ccccc1)N1CCCN(C(=O)c2ncncc2Cl)CC1
The cytotoxicity at 70.5 h of the first is lower: -11.1% for the first, 15.9% for the second.

Compared with O=C(c1cc2c(s1)CCC2)N1CCCC1Cn1cccn1 (stereo not drawn), CN(C)c1ncccc1C(=O)N1CCCC1Cn1cccn1 (stereo not drawn) is lower in cytotoxicity at 70.5 h: -1.69% for the first, -5.68% for the second.

First: CC(C)n1ccnc1CN1CCCN(C(=O)COC2CCCC2)CC1
Second: CN1CSC[C@H]1C(=O)N1CCN(Cc2cccc(Cl)c2)CC1
The cytotoxicity at 70.5 h of the first is higher: -3.66% for the first, -5.08% for the second.

Compared with O=C(CN1CCc2c(ncn2C2CC2)C1)NC1CCN(C2CC2)CC1, O=C(NC1CCCC1)N1CC[C@H]2[C@H]1CCN2c1nncs1 is higher in cytotoxicity at 70.5 h: 16.5% for the first, 36.5% for the second.

Compared with CCc1n[nH]c(NC(=O)c2ccc(Cl)cn2)c1Br, COCc1nc(N(C)C)ncc1C(=O)Nc1ccc(Cl)cc1 is lower in cytotoxicity at 70.5 h: -2.17% for the first, -11.1% for the second.

Going from CC1=N[C@@]2(CC[C@@H]3CN(CC4CC4)C[C@@H]32)C(=O)N1CC(C)C to CCN1CCC2(CC1)C(=O)N(c1ccc(C)nc1)CCN2CC(C)C, the cytotoxicity at 70.5 h rises from -15.3% to -3%.

Compared with COc1ccc2ccccc2c1CNCC1CCS(=O)(=O)C1 (stereo not drawn), COc1ccccc1S(=O)(=O)N1CCC(Oc2cccnn2)CC1 is higher in cytotoxicity at 70.5 h: -8.26% for the first, 3.7% for the second.

First: COC[C@]12COC[C@H]1CN(Cc1ccc3c(c1)OCO3)C2
Second: Cn1ccnc1CN1CCC2(CC(=O)N(c3ccc4c(c3)OCO4)C2)C1 (stereo not drawn)
The cytotoxicity at 70.5 h of the first is higher: -6.87% for the first, -17.1% for the second.

Going from O=C(c1ccnnc1)N1CC[C@@H](O)[C@@H]1Cc1ccccc1 to O=C(CC1CN(Cc2ccccc2)CCO1)Nc1ccccc1F (stereo not drawn), the cytotoxicity at 70.5 h rises from -9.3% to -3.6%.

Going from CC(C(N)=O)n1nc(-c2cccs2)cc(N)c1=O (stereo not drawn) to O=C(Cn1nc(-c2cccs2)ccc1=O)N1CCCCCC1, the cytotoxicity at 70.5 h falls from -3.21% to -24.9%.

First: CC(=O)N[C@H]1CCN(c2nc(C)nc3c2c(C)nn3C)C1
Second: Cc1nn(C)c2nc(N3CCC(C(O)c4nccn4C)CC3)sc12 (stereo not drawn)
The cytotoxicity at 70.5 h of the first is higher: -8.71% for the first, -11.6% for the second.

Going from O=C(CCn1nnc2ccccc2c1=O)N(CC1CCOC1)C1CC1 (stereo not drawn) to O=C1OCCN1CC(=O)N1C[C@H]2CC[C@@H]1CN(C(=O)c1ccccc1)C2, the cytotoxicity at 70.5 h rises from 1.53% to 2.12%.

First: Cc1cnn(C2CN(Cc3nc(-c4ccsc4)no3)C2)c1
Second: Cc1cccc(CN2C(=O)CO[C@@H]3CN(CCO)C[C@H]32)c1
The cytotoxicity at 70.5 h of the first is lower: -8.74% for the first, -3.53% for the second.

Going from Cc1cc(C)n(CC(=O)N(CC2CN(C)CCO2)c2nccs2)n1 (stereo not drawn) to CN1CCOC(CN(C(=O)Cc2ccccc2F)c2nccs2)C1 (stereo not drawn), the cytotoxicity at 70.5 h rises from -4.83% to 20.9%.

First: CCCN(C(=O)c1cnc(C)cn1)c1nc2c(s1)CCc1c-2cnn1C
Second: Cc1cc(C(N)=O)nc(C2(C)CCCN2Cc2cnn(C)c2)n1 (stereo not drawn)
The cytotoxicity at 70.5 h of the first is higher: 14.9% for the first, -4.52% for the second.

Going from Cc1cc(CN(C)C(=O)C2CC(c3cccc(F)c3)=NO2)no1 (stereo not drawn) to COc1ncccc1NC(=O)N1CCCC1c1cc(C)no1 (stereo not drawn), the cytotoxicity at 70.5 h falls from -10.1% to -16.3%.

Compared with CCN(CCC(=O)OC)S(=O)(=O)c1cnc2c(c1)c(C)nn2C, CCOc1ccc(S(=O)(=O)NCCc2ccc(N(C)C)cc2)cc1C is higher in cytotoxicity at 70.5 h: -4.3% for the first, -3.6% for the second.

Compared with CCN(Cc1ccco1)C(=O)NCC(c1cccs1)N(C)C (stereo not drawn), CCC(CO)N(Cc1cccs1)C(=O)Cc1ccncc1 (stereo not drawn) is lower in cytotoxicity at 70.5 h: 20.6% for the first, -8.11% for the second.

First: CS(=O)(=O)N1CCC(NCC2(N3CCOCC3)CCCCC2)CC1
Second: CS(=O)(=O)N1CCC(NC(=O)COc2ccc(Cl)cc2)CC1
The cytotoxicity at 70.5 h of the first is lower: -12.3% for the first, -4.42% for the second.

Going from COc1cccc(-c2nc3c([nH]2)CCNC3)c1F to c1ccc2c(c1)CCN(c1nc(-c3ccncc3)nc3c1CCNC3)C2, the cytotoxicity at 70.5 h rises from -12.1% to 23.9%.

First: Clc1ccc(CNc2cnn(CCN3CCOCC3)c2)cc1Cl
Second: O=C(Nc1ccc2c(ccn2CCN2CCOCC2)c1)c1ccncc1
The cytotoxicity at 70.5 h of the first is lower: -19.4% for the first, -1.62% for the second.

Compared with CC(NC(=O)CSCC(N)=O)c1ccccc1Oc1ccccc1 (stereo not drawn), CC(CCNC(=O)NCCc1ccncc1)c1ccccc1 (stereo not drawn) is lower in cytotoxicity at 70.5 h: 16.5% for the first, -0.345% for the second.

Going from CCCS(=O)(=O)N1CCC(n2nc(-c3cc(C)oc3C)ccc2=O)CC1 to Cc1ccc2cccc(S(=O)(=O)N(C)CC3CCN(C)CC3)c2n1, the cytotoxicity at 70.5 h falls from 8.97% to -7.7%.

Going from O=C(c1ccc(N2CCCC2)nc1)N1CCCC(c2nccs2)C1 (stereo not drawn) to Cc1ccc(N2CCc3ncnc(C4CC4)c3CC2)nn1, the cytotoxicity at 70.5 h rises from -20.6% to 21.3%.

Compared with c1cncc(NCCNC2CCCNC2)c1 (stereo not drawn), CN(Cc1cccnc1)C1CCCN(Cc2noc(C3CC3)n2)C1 (stereo not drawn) is higher in cytotoxicity at 70.5 h: 2.18% for the first, 24.6% for the second.

First: CC(C)N1CC2(CCC1=O)CCN(C(=O)c1cc(F)ccc1Cl)CC2
Second: CN1CC2(CCC1=O)CCN(CC[C@@H](O)c1ccccc1)CC2
The cytotoxicity at 70.5 h of the first is lower: -5.5% for the first, 19.6% for the second.

Compared with COc1c(C2CCCN2C(=O)c2c(C)noc2C(C)C)c(C)nn1C (stereo not drawn), CCc1cc(C(=O)N2CCCC2c2nc(C)c(CC)c(O)n2)on1 (stereo not drawn) is lower in cytotoxicity at 70.5 h: -4.7% for the first, -6.15% for the second.

Going from Cc1nn(C)c(C)c1C1CCCN1Cc1nc2ccccc2c(=O)[nH]1 (stereo not drawn) to Cc1nc2cc(C3CCN(Cc4ccccc4F)C3)nn2c(O)c1C (stereo not drawn), the cytotoxicity at 70.5 h falls from -0.414% to -3.81%.

First: O=C(Cc1ccc(F)cc1Cl)N1CC[C@H](CO)[C@@H](O)C1
Second: Cc1ccc(CC(=O)N2C[C@@H](CN(C)C)[C@@H](CO)C2)cc1C
The cytotoxicity at 70.5 h of the first is higher: 9.17% for the first, -2.62% for the second.

Going from CC(C)c1nc(COc2cccc3c2NC(=O)CO3)cs1 to CC(C)c1nc(CN(C)C(=O)C(O)c2ccc(Cl)cc2)cs1 (stereo not drawn), the cytotoxicity at 70.5 h falls from 13.8% to -0.849%.

Compared with COc1ccc(C)cc1NS(=O)(=O)c1ccc(CCNC(C)=O)s1, CCCC(=O)n1ccn(S(=O)(=O)c2ccc(C)cc2)c1=O is lower in cytotoxicity at 70.5 h: -4.06% for the first, -14.8% for the second.

First: NC(=O)c1ccc(N2CCCCC2)c(NC(=O)c2cc(F)ccc2F)c1
Second: CC(=O)NCc1ccc(C(=O)Nc2ccc3c(c2)C(=O)NC3)cc1
The cytotoxicity at 70.5 h of the first is lower: -4.2% for the first, -2.55% for the second.

First: CCc1nc(C)c(C(C)N(C)CCOC)s1 (stereo not drawn)
Second: COCCN(Cc1ccc(C)o1)C(=O)Nc1nnc2ccccn12
The cytotoxicity at 70.5 h of the first is higher: 10.1% for the first, -16.7% for the second.

First: Cc1nc(O)cc(CCNC(=O)CC[C@@H]2CCCN3CCCC[C@H]23)n1
Second: COc1ccc(CCNC(=O)C2CCCOC2)c(Cl)c1 (stereo not drawn)
The cytotoxicity at 70.5 h of the first is lower: -9.84% for the first, 3.61% for the second.

Going from c1csc(CN2CC3(CCN(Cc4ccsc4)C3)C2)n1 to CCOc1ccc(CN2CCc3nc4ccsc4c(=O)n3CC2)cc1, the cytotoxicity at 70.5 h falls from 8.65% to -6.57%.

Compared with Fc1ccccc1CN1C[C@H](OCC2CCOCC2)[C@H]2OCCC[C@H]21, COc1ccc(CN2CCO[C@H]3CN(C4CCCC4)CC[C@H]3C2=O)cc1 is lower in cytotoxicity at 70.5 h: 17.2% for the first, -1.08% for the second.

Going from CC(C(=O)NCCCN1CCCCCC1=O)n1cncn1 (stereo not drawn) to Cc1nn(C)c2cnn(Cc3ccc(C(=O)NCC4CCCO4)o3)c12 (stereo not drawn), the cytotoxicity at 70.5 h falls from -0.359% to -5.42%.

Compared with Cn1ccc(C(=O)N2CCOC3(COCCN(CC4CC4)C3)C2)n1 (stereo not drawn), COCC(=O)N1CCOC2(CCCN(c3cnccn3)C2)C1 (stereo not drawn) is lower in cytotoxicity at 70.5 h: -3.98% for the first, -9.25% for the second.

Compared with OC(CN1CCC(c2ccn[nH]2)CC1)c1ccc(F)cc1 (stereo not drawn), Cc1nnc(CN2CCC(Oc3ccc(F)cc3)CC2)o1 is lower in cytotoxicity at 70.5 h: 26.4% for the first, 0.0555% for the second.

First: CNC(=O)c1cccc(NC(=O)CN2CCCN(S(C)(=O)=O)CC2)c1
Second: CNC(=O)CN(C)C(=O)c1ccc(-c2nc(C)cs2)cc1
The cytotoxicity at 70.5 h of the first is higher: -5.6% for the first, -5.78% for the second.

First: CCc1nc(CNc2ccc(F)c(F)c2)no1
Second: Cc1ccc(NC(=O)CNC(C)Cc2ccsc2)cc1F (stereo not drawn)
The cytotoxicity at 70.5 h of the first is higher: -7.5% for the first, -8.47% for the second.

Compared with Cc1ncccc1Oc1ncnc(N2CCCC(O)(CO)CC2)c1C (stereo not drawn), CCOc1ncccc1NC(=O)c1ccc(C(C)=O)s1 is higher in cytotoxicity at 70.5 h: -16.4% for the first, -14.4% for the second.

First: COc1ncnc(N)c1CNCC(C)SC (stereo not drawn)
Second: COc1ncc(Cl)c(NCc2ccc([S+](C)[O-])cc2)n1 (stereo not drawn)
The cytotoxicity at 70.5 h of the first is higher: 34.8% for the first, -0.908% for the second.

Going from CC(=O)Nc1nc(-c2ccccc2)c[nH]1 to O=C(Nc1cc(CSCCO)ccn1)c1cc2ccccc2[nH]1, the cytotoxicity at 70.5 h rises from 3.67% to 13.4%.

Going from COc1ccc(OC)c(CN(C)c2nc3c(cnn3C)c(=O)[nH]2)c1 to COc1cc(NC(=O)NCc2ccccn2)cc(OC)c1, the cytotoxicity at 70.5 h falls from 42.4% to 8.5%.

Compared with Cc1ccc(O)c(CN(Cc2ccccc2)Cc2nccs2)n1, CC(=O)c1cccc(OCCCC(=O)N(C)Cc2cccc(O)c2)c1 is lower in cytotoxicity at 70.5 h: -4.83% for the first, -6.39% for the second.

First: COCCN1CC2(CCN(Cc3ccco3)CC2)c2ccccc21
Second: O=C1N(Cc2ccc(F)cc2)CCCC12CCN(C1CCSCC1)C2 (stereo not drawn)
The cytotoxicity at 70.5 h of the first is higher: 4.26% for the first, -6% for the second.

First: CCCN1CCN(Cc2cc(Cl)cc(Cl)c2)[C@H]2CS(=O)(=O)C[C@H]21
Second: CN(CCCc1nccn1C)c1nccc(N2CCC(O)C2)n1 (stereo not drawn)
The cytotoxicity at 70.5 h of the first is higher: 10.3% for the first, 7.29% for the second.

Compared with FC(F)(F)c1cccc(C2(CNCc3ccncc3)CCOCC2)c1, O=C(N1CCCC1)N1CCC2(CC1)COCCN(Cc1cccnc1)C2 is lower in cytotoxicity at 70.5 h: 6.55% for the first, -4.16% for the second.

Compared with COCCn1c(CN2CCCO2)cnc1S(=O)(=O)CC1CCCCC1, Cc1ccc(CN2CCC3(CC(C(=O)NCC4CC4)=NO3)C2)s1 (stereo not drawn) is lower in cytotoxicity at 70.5 h: -2.9% for the first, -8.89% for the second.

First: COCCOCC(=O)N1C[C@@H]2CC[C@H](Oc3ccccc3Cl)[C@@H]2C1
Second: O=C(NC(C1CC1)C1CC1)c1cccc[n+]1[O-]
The cytotoxicity at 70.5 h of the first is higher: 0.895% for the first, -2.48% for the second.

Going from CN(Cc1csc(-c2cccs2)n1)CC(O)CO (stereo not drawn) to COc1ccc(C2(C(=O)N3CC[C@@]4(O)CCNC[C@H]4C3)CCCC2)cc1, the cytotoxicity at 70.5 h falls from 18.7% to 17.8%.

CCc1ccc(S(=O)(=O)N2CC3(COC(C)(C)OC3)C2)s1 showed a cytotoxicity at 70.5 h of 14.1%.
